Test results: patent US20120077734A1, “Methods and assays for treating conditions in which macrophages play a pathogenic role” (priority 2010, published 2012)

Experiments:
MTLn3 tumor = experiment: in vivo needle invasion assay; design: species or system mice; settings: needle with EGF vs buffer, 4 hours (FIG. 6)
Description: FIG. 6A-6B. WASP is required for macrophage dependent carcinoma cell invasion in vivo. (A) Schematic illustration of in vivo invasion assay. (B) Quantification of the number of cells collected into the needle after 4 hours with EGF or without EGF (buffer) from wildtype, WASP+/− or WASP−/− mice bearing MTLn3 tumor. Cell counting was performed single blinded where the counter was not aware of the genotype of the mice. n=4 independent WT and 4 WASp−/− mice used) Error bars signify SEM. ** p<0.01 compared to buffer and EGF needle in WASP−/− mice.
The presence and absence of WASP in tumors was further characterized to determine the precise defect in the absence of WASP that led to reduced metastasis. […] Carcinoma cell invasiveness in the tumor was monitored and analyzed using a well established in vivo needle invasion assay that mimics the invasion of carcinoma cells into a blood vessel, according to Wyckoff et al. (Wyckoff, Segall et al. 2000). […] Additionally, a reduction was also observed in the motility of carcinoma cells in the tumors of WASP deficient mice as compared with control mice (FIG. 7).

MTLn3 = experiment: 3D collagen invasion assay of MTLn3 carcinoma cells (macrophage co-culture or BMM conditioned media); type: cell-based; settings: KO CM with exogenously added 25 nM EGF (FIG. 2C)
Source text: FIG. 1A-1D. WASP is required for macrophage-dependent breast carcinoma cell invasion. (A) Schematic illustration of the 3D invasion assay. (B) X-Z reconstruction of confocal images of 3D invasion assay using celltracker green labeled carcinoma cells (MTLn3) cultured on their own or co-cultured with celltracker red labeled primary bone marrow derived macrophages (BMM) isolated from either wild type (WT) or WASP knockout (WASP−/−) mice. Dotted line indicates the arbitrary threshold for measuring invasion at 20 μm (˜2 cell diameter). Quantification of cell tracker dye labeled (C) macrophage and (D) MTLn3 invasion. Fluorescence from cells was recorded at 5 μm step size. Collagen invasion is plotted as fraction of cells where fluorescence intensities above 20 μm are divided by total fluorescence from the entire stack (n=3 mice per genotype, age and sex matched). […]
FIG. 2A-2C. […] (A) Quantification of the MTLn3 invasion by MTLn3 cells alone, in response to wildtype BMM conditioned media (WT-CM) or conditioned media from WASP deficient mice (+KO CM) p<** 0.01 ***0.001 compared to wild-type macrophage conditioned media (WT CM). (B) Quantification of the MTLn3 invasion by MTLn3 cells alone, with wildtype BMM conditioned media (WT-CM) alone or with control IgG (Ctrl IgG) or with two different neutralizing anti-EGF antibodies generated in goat or rabbit (nEGF-G or nEGF-R). […]

N-WASP = N-WASP (Homo sapiens, UniProt O00401); settings: Peterson et al., 2004; cited from earlier work
Sequence of N-WASP (O00401 whole entry, species assumed): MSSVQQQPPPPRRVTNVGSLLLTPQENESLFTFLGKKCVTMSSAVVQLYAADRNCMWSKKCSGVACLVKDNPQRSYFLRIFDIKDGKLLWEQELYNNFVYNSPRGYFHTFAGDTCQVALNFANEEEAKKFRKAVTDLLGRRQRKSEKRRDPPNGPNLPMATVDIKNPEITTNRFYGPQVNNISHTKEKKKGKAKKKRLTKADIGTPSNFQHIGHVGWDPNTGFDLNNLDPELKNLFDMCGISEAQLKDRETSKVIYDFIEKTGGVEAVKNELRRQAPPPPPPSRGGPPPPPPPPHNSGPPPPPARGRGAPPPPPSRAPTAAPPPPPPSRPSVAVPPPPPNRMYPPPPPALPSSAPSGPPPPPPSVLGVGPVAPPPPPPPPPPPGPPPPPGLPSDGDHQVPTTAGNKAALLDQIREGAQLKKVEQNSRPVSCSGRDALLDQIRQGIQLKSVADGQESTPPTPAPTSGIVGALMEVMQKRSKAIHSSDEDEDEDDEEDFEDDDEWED

[1] = system: intracellular levels of ATP; settings: non-specific effects; cited from earlier work
WASP = biological target: T1, WASP (Homo sapiens, UniProt P42768); settings: cited from earlier work
T1 sequence (P42768 1-502): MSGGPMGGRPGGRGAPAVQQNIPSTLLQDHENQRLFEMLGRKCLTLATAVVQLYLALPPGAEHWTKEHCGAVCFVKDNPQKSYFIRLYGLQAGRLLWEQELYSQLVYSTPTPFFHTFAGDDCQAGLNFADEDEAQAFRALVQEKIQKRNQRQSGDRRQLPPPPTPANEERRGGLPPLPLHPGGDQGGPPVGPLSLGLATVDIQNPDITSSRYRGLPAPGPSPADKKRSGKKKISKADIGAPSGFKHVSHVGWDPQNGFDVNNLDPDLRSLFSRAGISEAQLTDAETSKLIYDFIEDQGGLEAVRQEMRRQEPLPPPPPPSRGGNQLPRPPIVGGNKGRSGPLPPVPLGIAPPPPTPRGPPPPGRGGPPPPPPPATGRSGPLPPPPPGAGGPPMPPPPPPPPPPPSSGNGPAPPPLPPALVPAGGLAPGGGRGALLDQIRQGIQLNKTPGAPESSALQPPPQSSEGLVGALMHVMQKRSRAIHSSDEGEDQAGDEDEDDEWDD

Compound	number of carcinoma cells collected into needle (MTLn3 tumor; tumor bearing WASP-deficient mice)	number of carcinoma cells collected into needle (MTLn3 tumor; tumor bearing control mice)	MTLn3 invasion with WASP deficient BMM conditioned media (MTLn3)	inhibition of N-WASP (N-WASP)	intracellular levels of ATP [1]	inhibition of WASP (WASP)
EGF: epidermal growth factor, carcinoma cell chemoattractant (NSDSECPLSHDGYCLHDGVCMYIEALDKYACNCVVGYIGERCQYRDLKWWELR; UniProt P01133 971-1023, looked up)	no difference in the number of cells collected	significantly enhanced the number of carcinoma cells collected into a needle	restored carcinoma cell invasion			
CN(C)C[C@H](O)Cn1c2ccc(Br)cc2c2cc(Br)ccc21 (racemic) [wiskostatin]				inhibitor of N-WASP	lowers the intracellular levels of ATP	also inhibits WASP
